Data taken from patent publication US20250092065A1, “2-(INDAZOL-5-YL)-6-(PIPERIDIN-4-YL)-1,7-NAPHTHYRIDINE DERIVATIVES AND RELATED COMPOUNDS AS MODULATORS FOR SPLICING NUCLEIC ACIDS AND FOR THE TREATMENT OF PROLIFERATIVE DISEASES” (REMIX THERAPEUTICS INC., priority 2022, published 2025).
Read-outs that look alike come from different tables or passages of the source.

Tested on: HTT mRNA
Experiment: RT-qPCR splicing assay, HTT mRNA canonical (CJ) and alternative (AJ) junction
Type: cell-based, human
Details: Homo sapiens; for AC50: HTT alternative junction mRNA, read-out: HTT AJ (increase in AJ mRNA, AC50)
How it was run: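 Both isoforms, CJ and AJ, read by qPCR from crude lysates of treated A673 or K562 cells; 24 h, 37 °C, maximum 10 uM. Normalization: housekeeper ΔCt, then DMSO ΔΔCt.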

[1] = HTT canonical junction mRNA, RT-qPCR, read-out: HTT CJ (decrease in CJ mRNA levels, IC50)
[2] = canonical junction qPCR panel, Table 4, read-out: HTT IC50 (decrease in CJ mRNA levels)

Compound	AC50 (RT-qPCR) [µM]	IC50 [1] [µM]	IC50 [2] [µM]
Cn1cc2cc(-c3ccc4nc([C@@H]5CCNC6(CC6)C5)ccc4n3)c(O)cc2n1 (single isomer, unassigned) [Compound 495]	< 0.1	< 0.1	< 0.1
Cn1cc2cc(-c3ccc4nc([C@H]5CCNC6(CC6)C5)ccc4n3)c(O)cc2n1 (single isomer, unassigned) [Compound 496]	< 0.1	0.1 to 1	0.1 to 1
Cc1nc2cc(O)c(-c3ccc4nc([C@H]5CCNC6(CC6)C5)ccc4n3)cc2o1 (single isomer, unassigned) [Compound 497]	< 0.1	< 0.1	< 0.1
Cc1nc2cc(O)c(-c3ccc4nc([C@@H]5CCNC6(CC6)C5)ccc4n3)cc2o1 (single isomer, unassigned) [Compound 498]	< 0.1	< 0.1	< 0.1
CN[C@@H]1CCN(c2ccc3nc(-c4cn5cc(C)nc5c(C)c4O)ncc3n2)C1 (single isomer, unassigned) [Compound 504]	0.1 to 1	0.1 to 1	0.1 to 1
CNC(=O)c1nc(-c2cc3cn(C)nc3c(C)c2O)nc2ccc(N3CCN[C@@H](C)C3)cc12 (single isomer, unassigned) [Compound 512]	0.1 to 1	0.1 to 1	0.1 to 1
CN[C@@H]1CCN(c2ccc3nc(-c4cc5cn(C)nc5c(C)c4O)ncc3c2)C1 (single isomer, unassigned) [Compound 521]	0.1 to 1	< 0.1	< 0.1
CNC(=O)c1nc(-c2cc3cn(C)nc3c(C)c2O)nc2ccc(N3C[C@@H](C)N[C@H](C)C3)cc12 (single isomer, unassigned) [Compound 653]	0.1 to 1	< 0.1	< 0.1
Cc1c(O)c(-c2ncc3cc(N4C[C@@H](C)N[C@H](C)C4)ccc3n2)cc2cn(C)nc12 (single isomer, unassigned) [Compound 661]	1 to 10	0.1 to 1	0.1 to 1
CNC(=O)c1nc(-c2cc3cn(C)nc3c(F)c2O)nc2ccc(N3C[C@@H](C)N[C@H](C)C3)cc12 (single isomer, unassigned) [Compound 668]	1 to 10	0.1 to 1	0.1 to 1
CNC(=O)c1nc(-c2cc3cn(C)nc3c(F)c2O)nc2ccc(N3C[C@H](C)N[C@@H](C)C3)cc12 (single isomer, unassigned) [Compound 669]	0.1 to 1	0.1 to 1	0.1 to 1
CNC(=O)c1nc(-c2cc3cn(C)nc3cc2O)nc2ccc(N3C[C@H](C)N[C@@H](C)C3)cc12 (single isomer, unassigned) [Compound 676]	0.1 to 1	0.1 to 1	0.1 to 1
CNC(=O)c1nc(-c2cc3cn(C)nc3cc2O)nc2ccc(N3C[C@@H](C)N[C@H](C)C3)cc12 (single isomer, unassigned) [Compound 677]	1 to 10	0.1 to 1	0.1 to 1
Cc1cn2cc(-c3ccc4cc(N5C[C@H](C)N[C@@H](C)C5)cc(F)c4n3)cc(F)c2n1 (single isomer, unassigned) [Compound 705, 2,2,2-trifluoroacetate]	0.1 to 1	0.1 to 1	0.1 to 1
Cn1cc2cc(-c3ncc4nc(C5CCNCC5)ccc4n3)c(O)c(F)c2n1 [Compound 155]	< 0.1	< 0.1	< 0.1
Cc1nc2cc(O)c(-c3ccc4nc(N5CCNC(C(C)(C)C)C5)ccc4n3)cc2o1 (stereo not drawn) [Compound 492]	0.1 to 1	0.1 to 1	0.1 to 1
Cc1nc2cc(O)c(-c3ccc4nc(N5CC[C@@H](N(C)C(C)(C)C)C5)ccc4n3)cc2o1 [Compound 493]	< 0.1	< 0.1	< 0.1
Cc1c(O)c(-c2nc(C(=O)N(C)C)c3cc(N4CCNCC4)ccc3n2)cc2cn(C)nc12 [Compound 502, 2-(6-hydroxy-2,7-dimethylindazol-5-yl)-N,N-dimethyl-6-(piperazin-1-yl)quinazoline-4-carboxamide]	1 to 10	1 to 10	1 to 10

Compound	AC50 (RT-qPCR) [µM]	IC50 [1] [µM]	IC50 [2] [µM]
CCNC(=O)c1nc(-c2cc3cn(C)nc3c(C)c2O)nc2ccc(N3CCNCC3)cc12 [Compound 503, N-ethyl-2-(6-hydroxy-2,7-dimethylindazol-5-yl)-6-(piperazin-1-yl)quinazoline-4-carboxamide]	< 0.1	< 0.1	< 0.1
CNC(=O)c1nc(-c2cc(F)c3nc(C)cn3c2)nc2ccc(N3CCNCC3)cc12 [Compound 505, 2-{8-fluoro-2-methylimidazo[1,2-a]pyridin-6-yl}-N-methyl-6-(piperazin-1-yl) quinazoline-4-carboxamide]	0.1 to 1	0.1 to 1	0.1 to 1
CNC(=O)c1nc(-c2cc3cn(C)nc3c(F)c2O)nc2ccc(N3CCNCC3)cc12 [Compound 506, 2-(7-fluoro-6-hydroxy-2-methylindazol-5-yl)-N-methyl-6-(piperazin-1-yl)quinazoline-4-carboxamide]	0.1 to 1	< 0.1	< 0.1
CNC(=O)c1nc(-c2cc3cn(C)nc3c(C)c2O)nc2ccc(N3CCC(N(C)C)CC3)cc12 [Compound 507, 6-[4-(dimethylamino)piperidin-1-yl]-2-(6-hydroxy-2,7-dimethylindazol-5-yl)-N-methylquinazoline-4-carboxamide]	1 to 10	0.1 to 1	0.1 to 1
CNc1nc(-c2cc3cn(C)nc3c(C)c2O)nc2ccc(N3CCNCC3)cc12 [Compound 508, 2,7-dimethyl-5-[4-(methylamino)-6-(piperazin-1-yl)quinazolin-2-yl]indazol-6-ol]	> 10	> 10	> 10
Cc1c(O)c(-c2nc(N(C)C)c3cc(N4CCNCC4)ccc3n2)cc2cn(C)nc12 [Compound 509, 5-[4-(dimethylamino)-6-(piperazin-1-yl)quinazolin-2-yl]-2,7-dimethylindazol-6-ol]	> 10	> 10	> 10
CNC(=O)c1nc(-c2cc3cn(C)nc3c(C)c2O)nc2ccc(N3CCC(NC)C3)cc12 (stereo not drawn) [Compound 510, 2-(6-hydroxy-2,7-dimethylindazol-5-yl)-N-methyl-6-[3-(methylamino)pyrrolidin-1-yl]quinazoline-4-carboxamide]	0.1 to 1	< 0.1	< 0.1
CNC(=O)c1nc(-c2cc3cn(C)nc3c(C)c2O)nc2ccc(N3C[C@@H](C)N[C@@H](C)C3)cc12 [Compound 511, 6-[(3R,5S)-3,5-dimethylpiperazin-1-yl]-2-(6-hydroxy-2,7-dimethylindazol-5-yl)-N-methylquinazoline-4-carboxamide]	0.1 to 1	0.1 to 1	0.1 to 1
CC(=O)c1nc(-c2cc3cn(C)nc3c(F)c2O)nc2ccc(N3CCNCC3)cc12 [Compound 513, 1-(2-(7-fluoro-6-hydroxy-2-methyl-2H-indazol-5-yl)-6-(piperazin-1-yl)quinazolin-4-yl)ethan-1-one 2,2,2-trifluoroacetate]	1 to 10	1 to 10	1 to 10
Cn1cc2cc(-c3nc(C#N)c4cc(N5CCNCC5)ccc4n3)c(O)c(F)c2n1 [Compound 514, 2-(7-fluoro-6-hydroxy-2-methylindazol-5-yl)-6-(piperazin-1-yl) quinazoline-4-carbonitrile; trifluoroacetic acid]	1 to 10	0.1 to 1	0.1 to 1
Cc1c(O)c(-c2ccc3cc(N4CCNCC4)cc(F)c3n2)cc2cn(C)nc12 [Compound 515, 5-[8-fluoro-6-(piperazin-1-yl)quinolin-2-yl]-2,7-dimethylindazol-6-ol]	< 0.1	< 0.1	< 0.1
Cn1cc2cc(-c3ccc4cc(N5CCNCC5)cc(F)c4n3)cc(F)c2n1 [Compound 516, 8-fluoro-2-(7-fluoro-2-methylindazol-5-yl)-6-(piperazin-1-yl)quinoline]	0.1 to 1	0.1 to 1	0.1 to 1
Cc1cn2cc(-c3ccc4cc(N5CCNCC5)cc(F)c4n3)cc(F)c2n1 [Compound 517, 8-fluoro-2-{8-fluoro-2-methylimidazo[1,2-a]pyridin-6-yl}-6-(piperazin-1-yl)quinoline]	0.1 to 1	0.1 to 1	0.1 to 1
Cn1cc2cc(-c3nc(C4CC4)c4cc(N5CCNCC5)ccc4n3)c(O)c(F)c2n1 [Compound 518, 5-[4-cyclopropyl-6-(piperazin-1-yl)quinazolin-2-yl]-7-fluoro-2-methylindazol-6-ol; trifluoroacetic acid]	1 to 10	1 to 10	1 to 10
Cc1c(O)c(-c2nc(-c3cncs3)c3cc(N4CCNCC4)ccc3n2)cc2cn(C)nc12 [Compound 519, 2,7-dimethyl-5-[6-(piperazin-1-yl)-4-(1,3-thiazol-5-yl)quinazolin-2-yl]indazol-6-ol]	> 10	> 10	> 10
Cc1c(O)c(-c2ncc3cc(N4CCNCC4)ccc3n2)cc2cn(C)nc12 [Compound 520, 2,7-dimethyl-5-[6-(piperazin-1-yl)quinazolin-2-yl]indazol-6-ol]	0.1 to 1	0.1 to 1	0.1 to 1
Cc1c(O)c(-c2nc(-c3nnc[nH]3)c3cc(N4CCNCC4)ccc3n2)cc2cn(C)nc12 [Compound 522, 2,7-dimethyl-5-[6-(piperazin-1-yl)-4-(4H-1,2,4-triazol-3-yl)quinazolin-2-yl]indazol-6-ol; bis(trifluoroacetic acid)]	> 10	1 to 10	1 to 10
